Values after ≈ are worked out from the molar mass of the structure shown. Values joined by “and” are separate entries in the source; they are usually repeats but may differ in a detail not shown here. Identical values can stand only once. Like-named read-outs stand apart in the source and are kept apart here.
Tests used:
Mtb CYP121A1 = biological target: T1, Mtb CYP121A1 (Mycobacterium tuberculosis, UniProt P9WPP7); assay: biochemical; assay type: binding; conditions: for Kd: 1 μM protein, 0 to 150 μM compound, plate reader, triplicate; for Soret shift: UV-vis absorbance, Soret band shift on ligand binding; for Spectral response in the UV-vis assay: compared with the imidazole derivatives
T1 construct: made in house
T1 sequence (P9WPP7 whole entry): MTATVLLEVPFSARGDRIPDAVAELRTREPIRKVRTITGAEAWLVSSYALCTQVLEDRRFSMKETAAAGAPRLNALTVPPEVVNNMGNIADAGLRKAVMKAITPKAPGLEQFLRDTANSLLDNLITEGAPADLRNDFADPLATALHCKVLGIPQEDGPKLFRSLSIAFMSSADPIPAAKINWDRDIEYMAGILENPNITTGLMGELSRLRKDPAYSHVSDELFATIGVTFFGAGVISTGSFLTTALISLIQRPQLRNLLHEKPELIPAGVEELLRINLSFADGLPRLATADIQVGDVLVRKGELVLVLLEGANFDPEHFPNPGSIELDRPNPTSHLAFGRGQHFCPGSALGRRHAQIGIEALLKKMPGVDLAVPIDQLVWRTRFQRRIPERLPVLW

Mtb H37Rv [1] = assay: microbe, parasite or virus in culture; assay type: cell-based; conditions: Mycobacterium tuberculosis
Mtb H37Rv [2] = system: Mtb H37Rv; design: method as in PMID 29185746; conditions: previously prepared methoxy derivatives; cited from earlier work
CYP121A1 = conditions: lead diarylpyrazole derivatives, Fig. 2; cited from earlier work
Mtb = system: Mtb; design: method as in PMID 31367508; conditions: lead diarylpyrazole derivatives, Fig. 2; cited from earlier work
[3] = Mtb H37Rv, SPOTi, five weeks at 37 °C, average of two independent experiments, read-out: MIC90

Compound | Kd (Mtb CYP121A1) | Soret shift (Mtb CYP121A1) [nm] | MIC90 (Mtb H37Rv [1]; [3]) | melting point [°C] | further results
COc1ccc(-c2nn(-c3ccc(F)cc3)cc2Cn2ccnc2)cc1 [11a, 4-((1H-Imidazol-1-yl)methyl)-1-(4-fluorophenyl)-3-(4-methoxyphenyl)-1H-pyrazole] | 65 ± 16.6 µM | 417 to 421 | 4.3 µg/mL and 12.3 µM | 150 to 152 | –
COc1ccc(-c2nn(-c3ccc(Cl)cc3)cc2Cn2ccnc2)cc1 [11b, 4-((1H-Imidazol-1-yl)methyl)-1-(4-chlorophenyl)-3-(4-methoxyphenyl)-1H-pyrazole] | – | – | 6 µg/mL and 16.5 µM | 136 to 138 | –
CCOc1ccc(-c2nn(-c3ccc(F)cc3)cc2Cn2ccnc2)cc1 [11c, 4-((1H-Imidazol-1-yl)methyl)-3-(4-ethoxyphenyl)-1-(4-fluorophenyl)-1H-pyrazole] | 54 ± 5.2 µM | 417 to 422 | 12 µg/mL and 33.2 µM | 118 to 120 | –
CCOc1ccc(-c2nn(-c3ccc(Cl)cc3)cc2Cn2ccnc2)cc1 [11d, 4-((1H-Imidazol-1-yl)methyl)-1-(4-chlorophenyl)-3-(4-ethoxyphenyl)-1H-pyrazole] | 18.8 ± 10.2 µM | 417 to 420 | 5 µg/mL and 13.3 µM | 124 to 126 | –
CCCOc1ccc(-c2nn(-c3ccc(F)cc3)cc2Cn2ccnc2)cc1 [11e, 4-((1H-Imidazol-1-yl)methyl)-1-(4-fluorophenyl)-3-(4-propoxyphenyl)-1H-pyrazole] | 22.3 ± 4.2 µM | 417 to 420 | 6 µg/mL and 15.9 µM | 120 to 122 | –
CCCOc1ccc(-c2nn(-c3ccc(Cl)cc3)cc2Cn2ccnc2)cc1 [11f, 4-((1H-Imidazol-1-yl)methyl)-1-(4-chlorophenyl)-3-(4-propoxyphenyl)-1H-pyrazole] | 11.7 µM | 417 to 419 | 4 µg/mL and 10.1 µM | 90 to 92 | Binding type from difference spectra (type I / type II) (Mtb CYP121A1; UV-vis binding difference spectra): type II
CC(C)Oc1ccc(-c2nn(-c3ccc(F)cc3)cc2Cn2ccnc2)cc1 [11g, 4-((1H-Imidazol-1-yl)methyl)-1-(4-fluorophenyl)-3-(4-isopropoxyphenyl)-1H-pyrazole] | 38.5 ± 8.7 µM | 417 to 419 | 4.3 µg/mL and 11.4 µM | 96 to 98 | –
CC(C)Oc1ccc(-c2nn(-c3ccc(Cl)cc3)cc2Cn2ccnc2)cc1 [11h, 4-((1H-Imidazol-1-yl)methyl)-1-(4-chlorophenyl)-3-(4-isopropoxyphenyl)-1H-pyrazole] | 17.7 µM | 417 to 419 | 4.4 µg/mL and 11.9 µM | 98 to 100 | –
COc1ccc(-c2nn(-c3ccc(F)cc3)cc2Cn2cncn2)cc1 [12a, 1-((1-(4-Fluorophenyl)-3-(4-methoxyphenyl)-1H-pyrazol-4-yl)methyl)-1H-1,2,4-triazole] | – | – | 12.8 µg/mL and 36.7 µM | 150 to 152 | –
COc1ccc(-c2nn(-c3ccc(Cl)cc3)cc2Cn2cncn2)cc1 [12b, 1-((1-(4-Chlorophenyl)-3-(4-methoxyphenyl)-1H-pyrazol-4-yl)methyl)-1H-1,2,4-triazole] | 5.13 µM and 5.1 µM | 417 to 417 | 4.4 µg/mL and 11.9 µM | 124 to 126 | Spectral response in the UV-vis assay (Mtb CYP121A1): weak spectral response
CCOc1ccc(-c2nn(-c3ccc(F)cc3)cc2Cn2cncn2)cc1 [12c, 1-((3-(4-Ethoxyphenyl)-1-(4-fluorophenyl)-1H-pyrazol-4-yl)methyl)-1H-1,2,4-triazole] | – | – | 25.6 µg/mL and 70.5 µM | 140 to 142 | –
CCOc1ccc(-c2nn(-c3ccc(Cl)cc3)cc2Cn2cncn2)cc1 [12d, 1-((1-(4-Chlorophenyl)-3-(4-ethoxyphenyl)-1H-pyrazol-4-yl)methyl)-1H-1,2,4-triazole] | – | – | 6.4 µg/mL and 16.8 µM | 122 to 124 | Spectral response in the UV-vis assay (Mtb CYP121A1): weak spectral response
CCCOc1ccc(-c2nn(-c3ccc(F)cc3)cc2Cn2cncn2)cc1 [12e, 1-((1-(4-Fluorophenyl)-3-(4-propoxyphenyl)-1H-pyrazol-4-yl)methyl)-1H-1,2,4-triazole] | – | – | 20.9 µg/mL and 55.5 µM | 120 to 122 | –
CCCOc1ccc(-c2nn(-c3ccc(Cl)cc3)cc2Cn2cncn2)cc1 [12f, 1-((1-(4-Chlorophenyl)-3-(4-propoxyphenyl)-1H-pyrazol-4-yl)methyl)-1H-1,2,4-triazole] | – | – | 6.4 µg/mL and 16.2 µM | 114 to 116 | –
CC(C)Oc1ccc(-c2nn(-c3ccc(F)cc3)cc2Cn2cncn2)cc1 [12g, 1-((1-(4-Fluorophenyl)-3-(4-isopropoxyphenyl)-1H-pyrazol-4-yl)methyl)-1H-1,2,4-triazole] | – | – | 20.9 µg/mL and 55.5 µM | 118 to 120 | –
CC(C)Oc1ccc(-c2nn(-c3ccc(Cl)cc3)cc2Cn2cncn2)cc1 [12h, 1-((1-(4-Chlorophenyl)-3-(4-isopropoxyphenyl)-1H-pyrazol-4-yl)methyl)-1H-1,2,4-triazole] | – | – | 25.6 µg/mL and 65.1 µM | 98 to 100 | –
NNC(=O)c1ccncc1 [Isoniazid, reference compound] | – | – | 0.2 µg/mL and 1.8 µM | – | –
NC[C@H]1O[C@H](O[C@H]2[C@H](O)[C@@H](O[C@H]3O[C@H](CO)[C@@H](O)[C@H](N)[C@H]3O)[C@H](N)C[C@@H]2N)[C@H](O)[C@@H](O)[C@@H]1O [Kanamycin, reference compound] | – | – | – | – | MIC90 (Mtb H37Rv [1]): 7.8 µg/mL and 16.1 µM
COc1ccc(-c2nn(-c3ccccc3)cc2Cn2ccnc2)cc1 [P1] | – | – | – | – | MIC90 (Mtb H37Rv [2]): 25 µg/mL (≈ 75.7 µM)
COc1ccc(-c2nn(-c3ccccc3)cc2Cn2cncn2)cc1 [P2] | – | – | – | – | MIC90 (Mtb H37Rv [2]): 25 µg/mL (≈ 75.4 µM)
CCc1ccc(-c2nn(-c3ccccc3)cc2Cn2ccnc2)cc1 [R = Et] | – | – | – | – | Kd (CYP121A1): 18.3 ± 3.4 µM; MIC (Mtb): 1.562 µg/mL (≈ 4.76 µM)
CCCc1ccc(-c2nn(-c3ccccc3)cc2Cn2ccnc2)cc1 [R = Pr] | – | – | – | – | Kd (CYP121A1): 53.7 ± 5.9 µM; MIC (Mtb): 0.78 µg/mL and 0.781 µg/mL
CC(C)c1ccc(-c2nn(-c3ccccc3)cc2Cn2ccnc2)cc1 [R = iPr] | – | – | – | – | Kd (CYP121A1): 22.5 ± 3.5 µM; MIC (Mtb): 1.562 µg/mL (≈ 4.56 µM)
CO[C@H]1/C=C/O[C@@]2(C)Oc3c(C)c(O)c4c(O)c(c(/C=N/N5CCN(C)CC5)c(O)c4c3C2=O)NC(=O)/C(C)=C\C=C\[C@H](C)[C@H](O)[C@@H](C)[C@@H](O)[C@@H](C)[C@H](OC(C)=O)[C@@H]1C [Rifampicin, reference compound] | – | – | 0.2 µg/mL and 0.3 µM | – | –

— PMC9667784, “Synthesis, biological evaluation and computational studies of pyrazole derivatives as Mycobacterium tuberculosis CYP121A1 inhibitors” (RSC Medicinal Chemistry, 2022)
